Data reported in patent US20080242646A1, “Split dose corticosteroid therapy” (priority 2007, published 2008).
Read-outs that look alike come from different tables or passages of the source.

Legend:
[1] = tested on: subjects with active rheumatoid arthritis; conditions: ITT (LOCF)
Text: A visual analog scale (VAS) provides a measure of a one-dimensional quantity. A VAS generally utilizes a representation of distance, such as a picture of a line with hash marks drawn at regular distance intervals, e.g., ten 1-cm intervals. […] This procedure provides a simple and rapid approach to obtaining quantitative information about how the patient is experiencing pain. VAS scales can also be used, e.g., to measure fatigue.
(§1) We conducted a 14 week blinded, randomized study including a split dose corticosteroid therapy or placebo, with regular CRP and inflammatory cytokine measurements. The study population had active rheumatoid arthritis. The subject must otherwise have been in good general health.
(§2) Screening Visit • Day 1 (Baseline Visit)—Start of Run-In Period • Day 14 (±2 days)—End of Run-In Period/Start of Treatment Period • Day 42 (±2 days) • Day 70 (±2 days)—End of Treatment Period/Start of Withdrawal Period • Day 98 (±2 days)—End of Study
(§3) All eligible subjects received DMARD therapy in a stable dose. Subjects were evaluated for study eligibility at the Screening visit, which was conducted within 14 days before the first dose of study drug. The subject provided written informed consent to participate in the study before any Screening laboratory samples were collected or evaluations performed.
(§4) All subjects were given 3 mg prednisolone alone for 2 weeks (Run-In Period). Subjects were then randomized into treatment groups to additionally receive 10 mg paroxetine, 20 mg paroxetine or placebo tablets for 8 weeks (Combination Treatment Period). The powered study ended after these first 10 weeks. All subjects continued in an un-powered part of the study for an additional 4 weeks (Withdrawal Period). In this portion of the study, half of the subjects on 10 mg or 20 mg paroxetine plus 3 mg prednisolone stopped taking paroxetine, and instead took 3 mg prednisolone plus placebo, while the other half stopped taking prednisolone, and instead took either dose of paroxetine plus placebo. Similarly, half of the subjects on prednisolone plus placebo stopped the prednisolone, and instead took two placebo tablets, while the other half continued the regimen of 3 mg prednisolone plus placebo.

[2] = tested on: subjects with active rheumatoid arthritis; conditions: ITT, missing = non-responder, subjects (% of arm)
Text: ACR-20/50/70 refers to a composite improvement of 20%, 50% or 70% in swollen joint count, tender joint count, and 3 or more of the following 5 measures: patient's own global assessment of RA disease activity; physician's global assessment of disease activity; patient's own assessment of pain due to RA; acute-phase reactant (CRP); and patient's self-addressed disability (Health Assessment Questionnaire).
as §1, §2, §3, §4

CRP = CRP measurements in the 14 week blinded randomized study; type: in vivo, human; conditions: ITT (LOCF)
Text: The study population had active rheumatoid arthritis.
The powered study ended after these first 10 weeks. […] A schematic of the study design is shown below.

[3] = cited from earlier work; for Equivalent dose, Equal to 1 mg prednisolone / Equivalent dose, Equal to 5 mg prednisolone: BNF guidelines
[4] = Day 14 (end of run-in, 3 mg prednisolone alone in all arms)

C[C@]12C=CC(=O)C=C1CC[C@@H]1[C@@H]2[C@@H](O)C[C@@]2(C)[C@H]1CC[C@]2(O)C(=O)CO [3 mg Prednisolone + Placebo, prednisolone]
Patient Pain Assessment (VAS) score % Change from baseline, Max [1, 4]: 106.7% | Patient Pain Assessment (VAS) score % Change from baseline, Mean (Std Dev) [1, 4]: −13.65 (38.137) % | Patient Pain Assessment (VAS) score % Change from baseline, Median [1, 4]: −11.11% | Patient Pain Assessment (VAS) score % Change from baseline, Min [1, 4]: −94.7% | Patient Pain Assessment (VAS) score Change from baseline, Max [1, 4]: 35.0 | Patient Pain Assessment (VAS) score Change from baseline, Mean (Std Dev) [1, 4]: −7.73 (19.337) | Patient Pain Assessment (VAS) score Change from baseline, Median [1, 4]: −5.00 | Patient Pain Assessment (VAS) score Change from baseline, Min [1, 4]: −81.0 | Patient Pain Assessment (VAS) score Value, Max [1, 4]: 97.0 | Patient Pain Assessment (VAS) score Value, Mean (Std Dev) [1, 4]: 45.58 (25.283) | Patient Pain Assessment (VAS) score Value, Median [1, 4]: 47.00 | Patient Pain Assessment (VAS) score Value, Min [1, 4]: 2.0 | Patient Pain Assessment (VAS) score % Change from baseline, Max ([1]; Day 42): 186.7% | Patient Pain Assessment (VAS) score % Change from baseline, Mean (Std Dev) ([1]; Day 42): −19.23 (47.955) % | Patient Pain Assessment (VAS) score % Change from baseline, Median ([1]; Day 42): −23.44% | Patient Pain Assessment (VAS) score % Change from baseline, Min ([1]; Day 42): −93.5% | Patient Pain Assessment (VAS) score Change from baseline, Max ([1]; Day 42): 56.0 | Patient Pain Assessment (VAS) score Change from baseline, Mean (Std Dev) ([1]; Day 42): −10.57 (21.630) | Patient Pain Assessment (VAS) score Change from baseline, Median ([1]; Day 42): −9.00 | Patient Pain Assessment (VAS) score Change from baseline, Min ([1]; Day 42): −64.0 | Patient Pain Assessment (VAS) score Value, Max ([1]; Day 42): 97.0 | Patient Pain Assessment (VAS) score Value, Mean (Std Dev) ([1]; Day 42): 42.74 (26.143) | Patient Pain Assessment (VAS) score Value, Median ([1]; Day 42): 37.00 | Patient Pain Assessment (VAS) score Value, Min ([1]; Day 42): 2.0 | Patient Pain Assessment (VAS) score % Change from baseline, Max ([1]; Day 70): 233.3% | Patient Pain Assessment (VAS) score % Change from baseline, Mean (Std Dev) ([1]; Day 70): −17.84 (57.121) % | Patient Pain Assessment (VAS) score % Change from baseline, Median ([1]; Day 70): −25.64% | Patient Pain Assessment (VAS) score % Change from baseline, Min ([1]; Day 70): −90.5% | Patient Pain Assessment (VAS) score Change from baseline, Max ([1]; Day 70): 49.0 | Patient Pain Assessment (VAS) score Change from baseline, Mean (Std Dev) ([1]; Day 70): −12.28 (23.864) | Patient Pain Assessment (VAS) score Change from baseline, Median ([1]; Day 70): −10.00 | Patient Pain Assessment (VAS) score Change from baseline, Min ([1]; Day 70): −69.0 | Patient Pain Assessment (VAS) score Value, Max ([1]; Day 70): 97.0 | Patient Pain Assessment (VAS) score Value, Mean (Std Dev) ([1]; Day 70): 41.04 (25.466) | Patient Pain Assessment (VAS) score Value, Median ([1]; Day 70): 39.00 | Patient Pain Assessment (VAS) score Value, Min ([1]; Day 70): 2.0 | ACR20 response from baseline: No [2, 4]: 53 (77) | ACR20 response from baseline: Yes [2, 4]: 16 (23) | ACR50 response from baseline: No [2, 4]: 64 (93) | ACR50 response from baseline: Yes [2, 4]: 5 (7) | ACR70 response from baseline: No [2, 4]: 66 (96) | ACR70 response from baseline: Yes [2, 4]: 3 (4) | ACR20 response from baseline: No ([2]; Day 42): 44 (64) | ACR20 response from baseline: Yes ([2]; Day 42): 25 (36) | ACR50 response from baseline: No ([2]; Day 42): 60 (87) | ACR50 response from baseline: Yes ([2]; Day 42): 9 (13) | ACR70 response from baseline: No ([2]; Day 42): 67 (97) | ACR70 response from baseline: Yes ([2]; Day 42): 2 (3) | ACR20 response from baseline: No ([2]; Day 70): 39 (57) | ACR20 response from baseline: Yes ([2]; Day 70): 30 (43) | ACR50 response from baseline: No ([2]; Day 70): 55 (80) | ACR50 response from baseline: Yes ([2]; Day 70): 14 (20) | ACR70 response from baseline: No ([2]; Day 70): 65 (94) | ACR70 response from baseline: Yes ([2]; Day 70): 4 (6) | CRP % Change from baseline, Max (CRP; [4]): 1700.0% | CRP % Change from baseline, Mean (Std Dev) (CRP; [4]): 7.11 (215.970) % | CRP % Change from baseline, Median (CRP; [4]): −32.26% | CRP % Change from baseline, Min (CRP; [4]): −95.8% | CRP Change from baseline, Max (CRP; [4]): 77.9 | CRP Change from baseline, Mean (Std Dev) (CRP; [4]): −7.40 (20.149) | CRP Change from baseline, Median (CRP; [4]): −1.70 | CRP Change from baseline, Min (CRP; [4]): −83.2 | CRP Value, Max (CRP; [4]): 107.3 | CRP Value, Mean (Std Dev) (CRP; [4]): 11.42 (17.413) | CRP Value, Median (CRP; [4]): 6.20 | CRP Value, Min (CRP; [4]): 0.3 | CRP % Change from baseline, Max (CRP; Day 42): 187.3% | CRP % Change from baseline, Mean (Std Dev) (CRP; Day 42): −17.67 (58.589) % | CRP % Change from baseline, Median (CRP; Day 42): −23.53% | CRP % Change from baseline, Min (CRP; Day 42): −92.5% | CRP Change from baseline, Max (CRP; Day 42): 21.5 | CRP Change from baseline, Mean (Std Dev) (CRP; Day 42): −8.61 (18.009) | CRP Change from baseline, Median (CRP; Day 42): −1.00 | CRP Change from baseline, Min (CRP; Day 42): −81.4 | CRP Value, Max (CRP; Day 42): 70.6 | CRP Value, Mean (Std Dev) (CRP; Day 42): 10.22 (12.443) | CRP Value, Median (CRP; Day 42): 5.40 | CRP Value, Min (CRP; Day 42): 0.3 | CRP % Change from baseline, Max (CRP; Day 70): 187.3% | CRP % Change from baseline, Mean (Std Dev) (CRP; Day 70): −13.66 (64.905) % | CRP % Change from baseline, Median (CRP; Day 70): −29.27% | CRP % Change from baseline, Min (CRP; Day 70): −92.8% | CRP Change from baseline, Max (CRP; Day 70): 15.5 | CRP Change from baseline, Mean (Std Dev) (CRP; Day 70): −8.95 (18.996) | CRP Change from baseline, Median (CRP; Day 70): −1.20 | CRP Change from baseline, Min (CRP; Day 70): −87.7 | CRP Value, Max (CRP; Day 70): 64.6 | CRP Value, Mean (Std Dev) (CRP; Day 70): 9.88 (11.956) | CRP Value, Median (CRP; Day 70): 5.70 | CRP Value, Min (CRP; Day 70): 0.2

CC(=O)OCC(=O)[C@@]1(O)CC[C@H]2[C@@H]3CCC4=CC(=O)CC[C@]4(C)[C@H]3C(=O)C[C@@]21C [cortisone acetate]
Equivalent dose, Equal to 1 mg prednisolone [3]: 5 mg | Equivalent dose, Equal to 5 mg prednisolone [3]: 25 mg

CC(=O)OCC(=O)[C@@]12N=C(C)O[C@@H]1C[C@H]1[C@@H]3CCC4=CC(=O)C=C[C@]4(C)[C@H]3[C@@H](O)C[C@@]12C [deflazacort]
Equivalent dose, Equal to 1 mg prednisolone [3]: 1.2 mg | Equivalent dose, Equal to 5 mg prednisolone [3]: 6 mg

C[C@]12CCC(=O)C=C1CC[C@@H]1[C@@H]2[C@@H](O)C[C@@]2(C)[C@H]1CC[C@]2(O)C(=O)CO [hydrocortisone]
Equivalent dose, Equal to 1 mg prednisolone [3]: 4 mg | Equivalent dose, Equal to 5 mg prednisolone [3]: 20 mg

C[C@]12C=CC(=O)C=C1CC[C@H]1[C@@H]3C[C@@H](O)[C@](O)(C(=O)CO)[C@@]3(C)C[C@H](O)[C@@]12F [triamcinolone]
Equivalent dose, Equal to 1 mg prednisolone [3]: 0.8 mg | Equivalent dose, Equal to 5 mg prednisolone [3]: 4 mg | Broadly similar dose from clinical dosing equivalence ([3]; nasal administration, BNF 37 Mar. 1999): 110 µg

methyl prednisone
Equivalent dose, Equal to 1 mg prednisolone [3]: 0.8 mg | Equivalent dose, Equal to 5 mg prednisolone [3]: 4 mg
